Measurements as given in patent US9416141B2 (University of Washington through its Center for …, priority 2012, dated 2016).
Where a name gives a salt, the structure may show the parent alone.

System: hair cells
Experiment: Hair cell toxicity assay in zebrafish (neomycin-induced hair cell death, DASPEI staining of neuromasts)
Format: in vivo
Conditions: Danio rerio; for Emax at 25 µM: maximum observed @ 25 μM test compound; for EC50: zebrafish larvae 5-7 dpf, 1 h pre-treatment, then 200 micromolar neomycin + test compound 30 min, read-out: HC50 (concentration that would produce 50% hair cell survival); for Emax at 8.3 µM: maximum observed @ 8.3 μM test compound; for Emax at 2.8 µM: maximum observed @ 2.8 μM test compound; for Emax at 0.9 µM: maximum observed @ 0.9 μM test compound
In short: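 Hair cell survival, as % of untreated controls, came from DASPEI scoring (0-2 each, ten neuromasts on one side) in 5-7 dpf larvae. These had 1 h compound pre-exposure (0.010-25 μM), then 200 μM neomycin with compound for 30 min. HCmax is peak protection; HC50 interpolated between flanking concentrations only when ≥50% survive.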

[1] = 200 micromolar neomycin, read-out: Max HC Protection (HCmax, % hair cell survival)

SMILES | Emax at 25 µM [1] | EC50 | further results
NC(=O)c1c(NC(=O)Nc2ccc(Cl)cc2)sc2c1CCN1CCCCC21 (racemic) [Example 118, (+/−)-2-[3-(4-Chlorophenyl)ureido]-5,7,8,9,10,10a-hexahydro-4H-thieno[2,3-a]quinolizine-3-carboxamide hydrochloride] | 99% | 1000 to 10000 nM | 
CC(C)(C)OC(=O)CCCN1CCc2c(sc(NC(=O)Nc3ccc(Cl)cc3)c2C(N)=O)C1 [Example 14, tert-Butyl 4-{3-carbamoyl-2-[3-(4-chlorophenyl)ureido]-4,5-dihydrothieno[2,3-c]pyridin-6(7H)-yl}butanoate] |  | < 1000 nM | Emax at 8.3 µM [1]: 83%
CC(C)C[N+]1(C)CCc2c(sc(NC(=O)Nc3ccc(Cl)cc3)c2C(N)=O)C1 (centres unmarked) [Example 135, 3-carbamoyl-2-[3-(4-chlorophenyl)ureido]-6-isobutyl-6-methyl-4,5,6,7-tetrahydrothieno[2,3-c]pyridin-6-ium iodide] | 107% | < 1000 nM | 
CCN1CCc2c(sc(NC(=O)Nc3ccc(C(=O)c4ccccc4)cc3)c2C(N)=O)C1 [Example 88, 2-[3-(4-Benzoylphenyl)ureido]-6-ethyl-4,5,6,7-tetrahydrothieno[2,3-c]pyridine-3-carboxamide] | 88% | 1000 to 10000 nM | 
NC(=O)c1c(NC(=O)Nc2ccc(Cl)cc2)sc2c1CCN(CCN1CCCCC1)C2 [Example 44, 2-[3-(4-chlorophenyl)ureido]-6-[2-(piperidin-1-yl)ethyl]-4,5,6,7-tetrahydrothieno[2,3-c]pyridine-3-carboxamide ditrifluoroacetate] | 98% | 1000 to 10000 nM | 
NC(=O)c1c(NC(=O)Nc2ccc(Cl)cc2)sc2c1CC1CCC2N1CC1CCCCC1 (racemic) [Example 131, (+/−)-2-[3-(4-chlorophenyl)ureido]-9-(cyclohexylmethyl)-5,6,7,8-tetrahydro-4H-5,8-epiminocyclohepta[b]thiophene-3-carboxamide hydrochloride] |  | < 1000 nM | Emax at 2.8 µM [1]: 88%
CC(C)(C)OC(=O)CCC[N+]1(C)CCc2c(sc(NC(=O)Nc3ccc(Cl)cc3)c2C(N)=O)C1 (centres unmarked) [Example 154, 6-(4-tert-Butoxy-4-oxobutyl)-3-carbamoyl-2-[3-(4-chlorophenyl)ureido]-6-methyl-4,5,6,7-tetrahydrothieno[2,3-c]pyridin-6-ium trifluoroacetate] |  | < 1000 nM | Emax at 2.8 µM [1]: 96%
C[N+]1(CCCC(N)=O)CCc2c(sc(NC(=O)Nc3ccc(Cl)cc3)c2C(N)=O)C1 (centres unmarked) [Example 167, 6-(4-Amino-4-oxobutyl)-3-carbamoyl-2-[3-(4-chlorophenyl)ureido]-6-methyl-4,5,6,7-tetrahydrothieno[2,3-c]pyridin-6-ium trifluoroacetate] |  |  | Emax at 2.8 µM [1]: 21%
COC(=O)CCCN1CCc2c(sc(NC(=O)Nc3ccc(Cl)cc3)c2C(N)=O)C1 [Example 20, Methyl 4-{3-carbamoyl-2-[3-(4-chlorophenyl)ureido]-4,5-dihydrothieno[2,3-c]pyridin-6(7H)-yl}butanoate hydrochloride] | 65% | 1000 to 10000 nM | 
CCN1CCc2c(sc(NC(=O)Nc3ccc(I)cc3)c2C(N)=O)C1 [Example 224, 6-ethyl-2-{[(4-iodophenyl)carbamoyl]amino}-4H,5H,6H,7H-thieno[2,3-c]pyridine-3-carboxamide] |  | 1000 to 10000 nM | Emax at 12.5 µM (maximum observed @ 12.5 μM test compound, 200 micromolar neomycin, read-out: Max HC Protection (HCmax, % hair cell survival)): 94%
NC(=O)CCN1CCc2c(sc(NC(=O)Nc3ccc(Cl)cc3)c2C(N)=O)C1 [Example 50, 6-(3-amino-3-oxopropyl)-2-[3-(4-chlorophenyl)ureido]-4,5,6,7-tetrahydrothieno[2,3-c]pyridine-3-carboxamide hydrochloride] | 82% | 1000 to 10000 nM | 
CC[N+]1(C)CCc2c(sc(NC(N)=O)c2C(N)=O)C1 (centres unmarked) [Example 184, 3-Carbamoyl-6-ethyl-6-methyl-2-ureido-4,5,6,7-tetrahydrothieno[2,3-c]pyridin-6-ium iodide] | 30% |  | 
Cc1c(CN2CCOCC2)sc(NC(=O)Nc2ccc(Cl)cc2)c1C(N)=O [Example 86, 2-[3-(4-Chlorophenyl)ureido]-4-methyl-5-(morpholinomethyl)thiophene-3-carboxamide hydrochloride] |  | 1000 to 10000 nM | Emax at 8.3 µM [1]: 51%
CN(C)C(=O)CC[N+]1(C)CCc2c(sc(NC(=O)Nc3ccc(Cl)cc3)c2C(N)=O)C1 (centres unmarked) [Example 194, 3-Carbamoyl-2-[3-(4-chlorophenyl)ureido]-6-[3-(dimethylamino)-3-oxopropyl]-6-methyl-4,5,6,7-tetrahydrothieno[2,3-c]pyridin-6-ium chloride] |  |  | Emax at 2.8 µM [1]: 36%
CC[N+]1(CC2CCCCC2)CCc2c(sc(NC(=O)Nc3ccc(Cl)cc3)c2C(N)=O)C1 (centres unmarked) [Example 195, 3-Carbamoyl-2-[3-(4-chlorophenyl)ureido]-6-(cyclohexylmethyl)-6-ethyl-4,5,6,7-tetrahydrothieno[2,3-c]pyridin-6-ium trifluoroacetate] |  | < 1000 nM | Emax at 0.9 µM [1]: 74%
CCN1CCc2c(sc(NC(=O)Nc3cccc(Cl)c3Cl)c2C(N)=O)C1 [Example 74, 2-[3-(2,3-Dichlorophenyl)ureido]-6-ethyl-4,5,6,7-tetrahydrothieno[2,3-c]pyridine-3-carboxamide hydrochloride] | 54% | > 10000 nM | 
CCN1CCc2c(sc(NC(=O)Nc3ccc(CC(=O)OC(C)(C)C)cc3)c2C(N)=O)C1 [Example 30, tert-Butyl 2-{4-[3-(3-carbamoyl-6-ethyl-4,5,6,7-tetrahydrothieno[2,3-c]pyridin-2-yl)ureido]phenyl}acetate] | 58% | 1000 to 10000 nM | 
CCN1CCc2c(sc(NC(=O)Nc3ccc(F)cc3)c2C(N)=O)C1 [Example 66, 6-Ethyl-2-[3-(4-fluorophenyl)ureido]-4,5,6,7-tetrahydrothieno[2,3-c]pyridine-3-carboxamide hydrochloride] | 57% | > 10000 nM | 
CC(C)(C)OC(=O)NCCCN1CCc2c(sc(NC(=O)Nc3ccc4ccccc4c3)c2C(N)=O)C1 [Example 206, tert-Butyl N-[3-(3-carbamoyl-2-{[(naphthalen-2-yl)carbamoyl]amino}-4H,5H,6H,7H-thieno[2,3-c]pyridin-6-yl)propyl]carbamate] |  | 1000 to 10000 nM | Emax at 6.3 µM (maximum observed @ 6.3 μM test compound, 200 micromolar neomycin, read-out: Max HC Protection (HCmax, % hair cell survival)): 88%
CC[N+]1(C)CCc2c(ccc(NC(=O)Nc3ccc(Cl)cc3)c2C(N)=O)C1 (centres unmarked) [Example 172, 5-Carbamoyl-6-[3-(4-chlorophenyl)ureido]-2-ethyl-2-methyl-1,2,3,4-tetrahydroisoquinolin-2-ium iodide] | 66% | > 10000 nM | 
CCN1CCc2c(sc(NC(=O)Nc3ccc(Cl)cc3)c2-c2nc(C)no2)C1 [Example 103, 1-(4-chlorophenyl)-3-[6-ethyl-3-(3-methyl-1,2,4-oxadiazol-5-yl)-4,5,6,7-tetrahydrothieno[2,3-c]pyridin-2-yl]urea hydrochloride] |  |  | Emax at 0.9 µM [1]: 12%
C[N+]1(CCCC(=O)O)CCc2c(sc(NC(=O)Nc3ccc(Cl)cc3)c2C(N)=O)C1 (centres unmarked) [Example 149, 3-Carbamoyl-6-(3-carboxypropyl)-2-[3-(4-chlorophenyl)ureido]-6-methyl-4,5,6,7-tetrahydrothieno[2,3-c]pyridin-6-ium trifluoroacetate] | 24% |  | 
CN1CCN(CCN2CCc3c(sc(NC(=O)Nc4ccc(Cl)cc4)c3C(N)=O)C2)CC1 [Example 45, 2-[3-(4-Chlorophenyl)ureido]-6-[2-(4-methylpiperazin-1-yl)ethyl]-4,5,6,7-tetrahydrothieno[2,3-c]pyridine-3-carboxamide hydrochloride] | 78% | 1000 to 10000 nM | 
CCN1C2CCC1c1sc(NC(=O)Nc3ccc(Cl)cc3)c(C(N)=O)c1C2 (racemic) [Example 133, (+/−)-2-[3-(4-Chlorophenyl)ureido]-9-ethyl-5,6,7,8-tetrahydro-4H-5,8-epiminocyclohepta[b]thiophene-3-carboxamide hydrochloride] | 76% | < 1000 nM | 
CCN1CCc2c(sc(NC(=O)Nc3cccc4c3ccn4C)c2C(N)=O)C1 [Example 84, 6-Ethyl-2-[3-(1-methyl-1H-indol-4-yl)ureido]-4,5,6,7-tetrahydrothieno[2,3-c]pyridine-3-carboxamide hydrochloride] | 4% |  | 
CC[N+]1(C)CCc2c(sc(NC(=O)Nc3ccc(C#N)cc3)c2C(N)=O)C1 (centres unmarked) [Example 150, 3-Carbamoyl-2-[3-(4-cyanophenyl)ureido]-6-ethyl-6-methyl-4,5,6,7-tetrahydrothieno[2,3-c]pyridin-6-ium iodide] | 43% |  | 
C[N+]1(CC2CC2)CCc2c(sc(NC(=O)Nc3ccc(Cl)cc3)c2C(N)=O)C1 (centres unmarked) [Example 140, 3-Carbamoyl-2-[3-(4-chlorophenyl)ureido]-6-(cyclopropylmethyl)-6-methyl-4,5,6,7-tetrahydrothieno[2,3-c]pyridin-6-ium iodide] | 92% | < 1000 nM | 
C[N+]1(CCO)CCc2c(sc(NC(=O)Nc3ccc(Cl)cc3)c2C(N)=O)C1 (centres unmarked) [Example 144, 3-Carbamoyl-2-[3-(4-chlorophenyl)ureido]-6-(2-hydroxyethyl)-6-methyl-4,5,6,7-tetrahydrothieno[2,3-c]pyridin-6-ium iodide] | 78% | 1000 to 10000 nM | 
CN1C2CCC1c1sc(NC(=O)Nc3ccc(C(=O)c4ccccc4)cc3)c(C(N)=O)c1C2 (racemic) [Example 126, (+/−)-2-[3-(4-Benzoylphenyl)ureido]-9-methyl-5,6,7,8-tetrahydro-4H-5,8-epiminocyclohepta[b]thiophene-3-carboxamide hydrochloride] |  |  | Emax at 2.8 µM [1]: 41%
